Measurements as given in the supplement of paper PMC4862054.

Assays:
Assay in all cases: normalised viability (% of control), CellTiter-Blue; higher = more viable cells (about 100 = DMSO control)
Conditions in all cases: incubation time: 72 h
[1] = system: HDQ-P1
Method in brief: (§1)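 384-well plates were pre-loaded with compound in 5 µl medium before 20 µl of breast cancer cell suspension was seeded. Following 72 h incubation, 2.5 µl CellTiter-Blue reagent was added for 2 h at 37 °C. Fluorescence was read at 560/590 nm and plates were normalised to vehicle (100) and a positive kill control (0), checked by Z'-factor. Normalised viability is reported at a single listed concentration of the series.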

[2] = system: DU-4475
Method in brief: as §1

[3] = system: SK-BR-3
Method in brief: as §1

[4] = system: CAL-120
Method in brief: as §1

[5] = system: MDA-MB-231
Method in brief: as §1

[6] = system: MDA-MB-468
Method in brief: as §1

[7] = system: CAL-85-1
Method in brief: as §1

[8] = system: CAL-148
Method in brief: as §1

[9] = system: MDA-MB-453
Method in brief: as §1

C#Cc1cccc(Nc2ncnc3cc(OC)c(OCCCCCCC(=O)NO)cc23)c1 [CUDC-101]
normalised viability [%]
Conditions | [1] | [2] | [3] | [4] | [5] | [6] | [7] | [8] | [9]
3 nM | 98.9 | 84 | – | – | – | – | 89 | 90.4 | 99.7
10 nM | – | – | 75.5 | 82.3 | 87.8 | 100 | – | – | –
30 nM | 93.3 | 84.7 | – | – | – | – | 75.5 | 89.8 | 67.3
100 nM | 71.5 | 80.8 | – | – | – | – | 91 | 85.2 | 65.3
1000 nM | – | – | 16.8 | 38.3 | 46 | 25.5 | – | – | –
10000 nM | – | – | 2.82 | 9.22 | 3.42 | 8.4 | – | – | –

C[C@@H]1C=C2C(=O)O[C@@H]3CC[C@H](C1)[C@]23O [Galiellalactone]
normalised viability [%]
Conditions | [1] | [2] | [3] | [4] | [5] | [6] | [7] | [8] | [9]
15 nM | 108 | 103 | – | – | – | – | 95.8 | 99.7 | 114
50 nM | – | – | 105 | 88.6 | 100 | 101 | – | – | –
150 nM | 96 | 92.2 | – | – | – | – | 90.5 | 108 | 91.2
500 nM | 116 | 95.5 | – | – | – | – | 108 | 103 | 98.4
5000 nM | – | – | 85.2 | 89.9 | 61.4 | 80.4 | – | – | –
50000 nM | – | – | 6.84 | 83.8 | 7.78 | 33.6 | – | – | –
